Data from patent US6413983B1, “Benzopyranyl heterocycle derivatives, process for preparation thereof, and pharmaceutical compositions containing them” (Dongbu Hannong Chemical Co. Ltd., priority 2000, dated 2002).

Assays:
[1] = tested on: isolated rat aorta constricted with methoxamine; test: Vasodilation effects on isolated aorta of rats (methoxamine-constricted rings); conditions: isolated rat aorta constricted with methoxamine (3 μM); 50% relaxation
Source text: Male Sprague-Dawly rats (350-450 g, obtained from the Experimental Animal Team of the Korea Research Institute of Chemical Technology) were knocked unconscious by hitting the occipital region, sacrificed by cervical dislocation, and underwent thoracotomy. After being quickly removed, the thoracic aorta was deprived of the adipose tissue and cut into aortic rings of 3 mm width. The aorta was lightly rubbed with cotton club soaked in a modified Krebs Henseleit buffer (Physiological Salt Solution, PSS) to remove the inner epithelial layer therefrom.
Thereafter, 3×10^−6 M methoxamine was applied to induce an intensive constriction in the vascular smooth muscle. When the vasoconstriction induced by the methoxamine was reached and maintained to a maximum, test compounds and controls were cumulatively added to the organ baths in concentrations of 1, 3, 10 and 30 μM so as to examine the vasodilation effect.
The change rate of constriction by the addition of the drugs compared to the maximal constriction induced by methoxamine was calculated to plot a concentration-relaxation response curve.

[2] = tested on: cerebral cortical neurons; test: Protective activity for neuronal cells against iron-induced damage (LDH release); assay type: cell-based, rat; conditions: 30 μM compound; 50 uM FeSO4, 24 hours; LDH reduction rate vs control
[3] = in vivo; conditions: SD, rat, po, 1 g/kg
Method: In this test six-week old SPF SD rats were used with two rats assigned to each group. […] The dosing volume was 10 ml/kg. […] All survivors at the end of the observation period underwent laparotomy under ether anesthesia and the blood samples were taken from the abdominal aorta for hematological tests and biochemical analysis. After sacrificing the animals, autopsy was performed for macroscopic observation of the organs and tissues. Tissue samples of vital organs from macroscopic legion were removed and fixed in 10% neutral buffered formalin solution, then processed by standard procedures for histopathology and examined under light microscope.

[4] = tested on: ischemic myocardium damage model of anesthetized rats; test: Cardioprotective activity in ischemic heart models of rats (LAD occlusion/reperfusion, anesthetized rats); assay type: in vivo, rat; conditions: rat in vivo, 0.3 mg/kg i.v.; for AAR/LV (%): area at risk per left ventricle; for IZ/AAR (%): myocardial infarction rate to area at risk, 45 min occlusion, 90 min reperfusion
Method: After trachetomy, the rats were rendered to respire artificially at a rate of 60/min with a stroke volume of 10 ml/kg. Cannulars were inserted into the fermoral vein and the fermoral artery and used for drug administration and blood pressure measurement, respectively.
In the ischemic myocardial injury models, the body temperature has an important influence on the results. To avoid the change in the body temperature, a body temperature measuring probe was inserted into the rectum of each rat and the body temperature was constantly kept at 37° C. with the aid of a homeothermic blanket control unit.
Afterwards, during testing, a continuous measurement was made of the mean arterial blood pressures and heart rates from the rats. For the measurement of the blood pressure, a pressure transducer, such as that manufactured by Grass Ins., MA, U.S.A., identified as Model Statham P23XL, was used.
The heart rate was measured by a tachometer, such as that manufactured by Gould Inc., Ohio, U.S.A., identified as Biotachometer. In addition, all of the changes occurring were continuously recorded through the Gould 2000 chart recorder, manufactured by Gould Inc.
The left coronary artery was occluded according to the Selye H. method as follows. The rats underwent a left thoracotomy operation for partial opening of the chest and the right-side chest was pressurized by the middle finger of the left hand to push the heart out. Immediately after the left anterior descending coronary artery hereinafter referred to as (LAD) was carefully stitched using a suture needle with 5-0 silk ligature, the heart was then repositioned in the thoracic cavity while both ends of the ligature were situated outside. The opposite ligature ends were passed through a PE tube (PE100, 2.5 cm) and allowed to stand loose for 20 min for stabilization. Via the cannula inserted into the femoral vein, vehicles or drugs were administered into the rats which were rendered to stand for 30 min in order to sufficiently elicit the efficacies of the drugs.
Next, the PE tube which had the doubled strands of the ligature passed therethrough was pushed toward the heart and then, set upright by tightly pulling end regions of the ligature with a hemostatic pincette while pressing the coronary artery.
After the reocclusion of the coronary artery in accordance with the above procedure, the rats were administered with 2 ml of a 1% Evans blue through an intravenous route. Subsequently, an excess of pentobarbital was intravenously injected to kill the rats, after which the heat was removed and then, deprived of the right ventricle and both atria. The left ventricle was cut horizontally to the heart apex into 5 or 6 slices which were weighed. From the surface of each slice, images were input with the aid of a Hi-scope into a computer installed with an image analyzing program (Image Pro Plus). From the images input into the computer, the area of the normal blood stream tissue region which appeared blue in a computer monitor and the area which appeared colorless were measured. The percentage of the colorless area to the total area of each slice was calculated and multiplied by the weight of each slice to determine the area at risk (AAR) of each slice. The AAR obtained from each slice was summed for all slices and the total AAR was divided by the total weight of the left ventricle to yield % AAR, as shown in the following mathematical formula 1:
AAR(%)=(summed AAR for all slices)/(total weight of left ventricle)×100 [Mathematical Formula 1]
During this fixation, 2,3,5-triphenyltetrazolium chloride was reduced into formazan dye by the myocardial dehydrogenase and its cofactor NADH, so that the normal regions of the tissue were colored brick-red. In contrast, the infarct zones of the tissue were deficient in the dehydrogenase and its cofactor, so that no reduction occurred on the 2,3,5-triphenyltetrazolium, allowing the color to remain unchanged.

[5] = tested on: isolated rat hearts; test: Cardioprotective activity in isolated ischemic heart models of rats (Langendorff, global ischemia/reperfusion); conditions: 10 μM; for LDH (U/g): cumulative reperfusion LDH release; for EDP (MmHg): left ventricular end-diastolic pressure after 30 min reperfusion; for LDVP × HR (%): reperfusion double product as % of pretreatment DP, 30 min global ischemia, 30 min reperfusion; for TTC: time to contracture during global ischemia
Method: Male Sprague-Dawley rats weighing 300-450 g were anesthetized with sodium pentobarbital (100 mg/kg, i.p.). The tail vein was injected with heparin (1,000 U/kg) and then the trachea was intubated. […] A latex balloon filled with solvent (ethanol: water=1:1 (v/v)) and attached to a metal cannula was placed in the left ventricle through pulmonary vein and connected to a Isotec pressure transducer (H.S.E., Germany) for measurement of left ventricular pressure (LVP). […] Then, baseline contractile function, heart rate (HR), and coronary flow (CF) (extracorporeal electromagnetic flow probe, Narco Bio-System, U.S.A.) were measured. Cardiac contractile function was calculated by subtracting LVEDP from LV peak systolic pressure (LVSP), yielding developed pressure (LVDP). Double product (DP), another important parameter for assessing cardiac performance, was calculated by multiplying HR by LVDP. Throughout the experiment, all these parameters were measured, and calculated before and 10 min after pretreatment with each compound and 30 min after the onset of reperfusion with buffer. Data on reperfusion DP were further expressed as the percentage to pretreatment DP.
We then rendered the hearts globally ischemic by completely shutting off the perfusate for 30 min. Severity of ischemia was determined as the time to contracture (TTC, min) during global ischemia in which the first 5 mmHg increase in EDP was observed. Then, the hearts were reperfused and, 30 min later, contractile function (LVDP, DP) and cumulative reperfusion lactate dehydrogenase (LDH) release were measured. LDH was measured as a sensitive index for loss of cell viability with a kit supplied by Boerhinger Mannheim based on the technique of Wroblewski and LaDue [F. Wroblewski and JS.

## CCOC(=O)[C@@H]1Cc2ccccc2N1[C@H]1c2cc([N+](=O)[O-])ccc2O[C@](C)(C(OC)OC)[C@@H]1O [Example 2, 1-[(2S, 3R, 4S)-3,4-dihydro-2-dimethoxymethyl-3-hydroxy-2-methyl-6-nitro-2H-1-benzopyran-4-yl]-(2S)-2,3-dihydro-1H-indole-2-carboxylic acid ethyl ester]
[1]
  IC50: 24.3 µM
[2]
  % Protection: 79%
[3]
  LD50: > 1000 mg/kg
[4]
  AAR/LV (%): 32.6%
  IZ/AAR (%): 39.1%
[5]
  LDH (U/g): 17.8 U/g
  EDP (MmHg): 25.7 MmHg
  LDVP × HR (%): 55.1%
  TTC: 22.6 min

## CCOC(=O)[C@H]1Cc2ccccc2N1[C@@H]1c2cc([N+](=O)[O-])ccc2O[C@@](C)(C(OC)OC)[C@H]1O [Example 30, 1-[(2R, 3S, 4R)-3,4-dihydro-2-dimethoxymethyl-3-hydroxy-2-methyl-6-nitro-2H-1-benzopyran-4-yl]-(2R)-2,3-dihydro-1H-indole-2-carboxylic acid ethyl ester]
[1]
  IC50: > 30 µM
[3]
  LD50: > 1000 mg/kg
[4]
  AAR/LV (%): 33.6%
  IZ/AAR (%): 38.9%
[5]
  LDH (U/g): 9.2 U/g
  EDP (MmHg): 11.3 MmHg
  LDVP × HR (%): 64.1%
  TTC: 27.1 min
